This passage reports IC50 and anti-proliferative activity category results from article PMC12498222 (RSC Advances, 2025).

Broadly, the IC50 is the point on the concentration scale where inhibition reaches its midpoint.

Each structure is given as a SMILES string. Several values for one entry are separate records, joined by “and”; a condition that tells them apart may be missing. Identical values can stand only once. Like-named read-outs stand apart in the source and are kept apart here.

Series [1] has as its system MCF-7. Nature of the series: cells. As to conditions: Homo sapiens, MCF7, 24 h, read-out: In vitro cytotoxicity IC50 (mean ± SD) MCF-7.
The subject of series [2] is MCF-7. As to conditions: for anti-proliferative activity category: MCF-7, in words; for IC50: human.
The target of another series is EGFR TK enzyme (Homo sapiens, UniProt P00533). Briefly: biochemical. As to conditions: EGFR IC50 (mean ± SD), ATP 1.65 μM, 30 min, room temperature.
EGFR TK enzyme, sequence (P00533 25-1210): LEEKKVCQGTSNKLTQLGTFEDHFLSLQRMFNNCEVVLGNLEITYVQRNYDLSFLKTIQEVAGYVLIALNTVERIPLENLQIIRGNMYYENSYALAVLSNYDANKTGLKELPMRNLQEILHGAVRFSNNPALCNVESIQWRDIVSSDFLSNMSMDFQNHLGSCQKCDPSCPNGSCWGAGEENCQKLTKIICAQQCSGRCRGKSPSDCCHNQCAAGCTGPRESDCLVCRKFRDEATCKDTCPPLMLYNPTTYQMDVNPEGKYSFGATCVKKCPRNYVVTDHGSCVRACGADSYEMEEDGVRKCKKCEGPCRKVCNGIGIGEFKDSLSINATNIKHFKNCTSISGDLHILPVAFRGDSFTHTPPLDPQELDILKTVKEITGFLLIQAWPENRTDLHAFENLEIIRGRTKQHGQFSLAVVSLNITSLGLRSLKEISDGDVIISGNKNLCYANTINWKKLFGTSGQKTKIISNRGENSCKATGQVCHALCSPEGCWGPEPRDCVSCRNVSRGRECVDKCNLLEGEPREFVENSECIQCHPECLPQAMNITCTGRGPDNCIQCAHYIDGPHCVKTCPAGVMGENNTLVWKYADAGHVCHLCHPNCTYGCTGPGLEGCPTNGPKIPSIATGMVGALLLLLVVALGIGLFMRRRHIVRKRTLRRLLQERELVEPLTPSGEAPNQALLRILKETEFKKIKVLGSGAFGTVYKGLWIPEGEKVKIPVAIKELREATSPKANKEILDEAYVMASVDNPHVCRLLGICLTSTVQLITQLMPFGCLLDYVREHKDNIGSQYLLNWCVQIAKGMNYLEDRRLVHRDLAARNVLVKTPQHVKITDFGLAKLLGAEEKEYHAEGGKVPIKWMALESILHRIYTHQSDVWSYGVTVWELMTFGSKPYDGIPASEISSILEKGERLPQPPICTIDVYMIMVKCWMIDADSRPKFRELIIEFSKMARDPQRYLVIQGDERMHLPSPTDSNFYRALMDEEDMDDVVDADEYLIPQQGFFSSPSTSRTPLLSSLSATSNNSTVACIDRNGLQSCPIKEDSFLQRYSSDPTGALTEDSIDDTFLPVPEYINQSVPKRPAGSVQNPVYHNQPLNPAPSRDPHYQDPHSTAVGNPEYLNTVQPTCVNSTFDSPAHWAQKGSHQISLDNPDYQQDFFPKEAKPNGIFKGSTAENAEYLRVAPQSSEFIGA

On to `Nc1cc(N2C(=O)c3ccccc3C2=O)nc(SCC(=O)NN=Cc2cccc([N+](=O)[O-])c2)n1` [6a, 2-((4-Amino-6-(1,3-dioxoisoindolin-2-yl)pyrimidin-2-yl)thio)-N′-(3-nitrobenzylidene)acetohydrazide], for which the IC50 with MCF-7 [1] came out at 62 ± 3.3 µM. Moreover, the anti-proliferative activity category entry with MCF-7 [2] was “lowest anti-proliferative activity”.

With `Nc1cc(N2C(=O)c3ccccc3C2=O)nc(SCC(=O)NN=Cc2ccc([N+](=O)[O-])cc2)n1` [6b, 2-((4-Amino-6-(1,3-dioxoisoindolin-2-yl)pyrimidin-2-yl)thio)-N′-(4-nitrobenzylidene)acetohydrazide], the IC50 in the series with MCF-7 [1] is 48.4 ± 2.8 µM. Besides, the anti-proliferative activity category result with MCF-7 [2] is recorded as “moderate activity”.

`Nc1cc(N2C(=O)c3ccccc3C2=O)nc(SCC(=O)NN=Cc2ccc(Cl)cc2)n1` [6c, 2-((4-Amino-6-(1,3-dioxoisoindolin-2-yl)pyrimidin-2-yl)thio)-N′-(4-chlorobenzylidene)acetohydrazide]: the IC50 is 37.7 ± 3.6 µM in the series with MCF-7 [1]; 0.9 µM and 0.88 µM at EGFR TK enzyme; 31.8 ± 2 µM in the series with MCF-7 [2]. Moreover, the anti-proliferative activity category result in the series with MCF-7 [2] was “moderate activity”.

For the compound `Nc1cc(N2C(=O)c3ccccc3C2=O)nc(SCC(=O)NN=Cc2ccc(O)cc2)n1` [6e, 2-((4-Amino-6-(1,3-dioxoisoindolin-2-yl)pyrimidin-2-yl)thio)-N′-(4-hydroxybenzylidene)acetohydrazide], the IC50 in the series with MCF-7 [1] came out at 75.4 ± 3.7 µM. Moreover, the anti-proliferative activity category entry in the series with MCF-7 [2] is recorded as “lowest anti-proliferative activity”.

Consider `COc1ccc(C=NNC(=O)CSc2nc(N)cc(N3C(=O)c4ccccc4C3=O)n2)cc1OC` [6g, 2-((4-Amino-6-(1,3-dioxoisoindolin-2-yl)pyrimidin-2-yl)thio)-N′-(3,4-dimethoxy-benzylidene)acetohydrazide], for which, in the series with MCF-7 [1], the half-maximal inhibitory concentration (IC50) came to 19.6 ± 1.5 µM. Further, the anti-proliferative activity category entry in the series with MCF-7 [2] is “moderate activity”.

Regarding `CNC(c1ccccc1)c1c(N)[nH]c(=O)[nH]c1=O` (stereo not shown) [10a, 6-Amino-5-((methylamino)(phenyl)methyl)pyrimidine-2,4(1H,3H)-dione], the results for the IC50 in the series with MCF-7 [1] and on EGFR TK enzyme were 8.6 ± 0.7 µM and 4.6 ± 0.11 µM, respectively.

For `CCNC(c1ccccc1)c1c(N)[nH]c(=O)[nH]c1=O` (stereo not shown) [10b, 6-Amino-5-((ethylamino)(phenyl)methyl)pyrimidine-2,4(1H,3H)-dione], the IC50 was 31.8 ± 2 µM in the series with MCF-7 [1], 0.65 ± 0.02 µM against EGFR TK enzyme and 37.7 ± 2.4 µM in the series on MCF-7 [2]. The anti-proliferative activity category entry in the series on MCF-7 [2] was “moderate activity”.

For `CCCCNC(c1ccccc1)c1c(N)[nH]c(=O)[nH]c1=O` (stereo not shown) [10c, 6-Amino-5-((butylamino)(phenyl)methyl)pyrimidine-2,4(1H,3H)-dione], the figures for the IC50 with MCF-7 [1] and against EGFR TK enzyme were 7.6 ± 0.5 µM and 0.99 ± 0.03 µM, respectively. Also, in the series with MCF-7 [2], the anti-proliferative activity category entry is given as “high anti-proliferative activity”.

For `CN(C)C(c1ccccc1)c1c(N)[nH]c(=O)[nH]c1=O` (stereo not shown) [10d, 6-Amino-5-((dimethylamino)(phenyl)methyl)pyrimidine-2,4(1H,3H)-dione], the IC50 with MCF-7 [1] is 8.6 ± 0.7 µM; with MCF-7 [2], 14.2 ± 1.2 µM. In addition, the anti-proliferative activity category entry with MCF-7 [2] is “high anti-proliferative activity”.

On to `O=C1CCC(N2C(=O)c3ccccc3C2=O)C(=O)N1` (stereo not shown) [Thalidomide, reference compound], for which the IC50 with MCF-7 [1] turned out to be 13.4 ± 0.5 µM.
